PubChem BioAssay (NCI)
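Test compounds were applied to cells in 96-well plates for 48 hours at 5 doses. GI50 marks 50% less growth. TGI is the concentration that stops growth completely.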

Legend:
Assay in all cases: NCI tumour cell line growth inhibition, 48 h
DMS 114 small cell lung = test system: DMS 114 small cell lung
DMS 273 small cell lung = test system: DMS 273 small cell lung
HOP-18 NSCLC = test system: HOP-18 NSCLC
KM20L2 colon = test system: KM20L2 colon
LXFL 529 NSCLC = test system: LXFL 529 NSCLC
SNB-78 CNS = test system: SNB-78 CNS
XF 498 CNS = test system: XF 498 CNS
DLD-1 colon = test system: DLD-1 colon
P388 leukemia = test system: P388 leukemia
P388/ADR leukemia = test system: P388/ADR leukemia
SN12K1 renal = test system: SN12K1 renal

SMILES | TGI (DMS 114 small cell lung) [µM] | TGI (DMS 273 small cell lung) [µM] | TGI (HOP-18 NSCLC) [µM] | TGI (KM20L2 colon) [µM] | TGI (LXFL 529 NSCLC) [µM] | TGI (SNB-78 CNS) [µM] | TGI (XF 498 CNS) [µM] | TGI (DLD-1 colon) [µM] | GI50 (DLD-1 colon) [µM] | GI50 (KM20L2 colon) [µM] | GI50 (LXFL 529 NSCLC) [µM] | GI50 (SNB-78 CNS) [µM] | TGI (P388 leukemia) [µM] | TGI (P388/ADR leukemia) [µM] | TGI (SN12K1 renal) [µM]
CC(=O)OC(CCC1(C)OC1COc1ccc(CCNC(=O)C=C(C)C)cc1)C(C)(C)OC(C)=O (stereo unspecified) | 48.7 | > 100 | > 100 | > 100 | > 100 | > 100 | 86.3 | – | – | – | – | – | – | – | –
CC(=O)O[C@]12CCCCCC1C1(O)C(O)CCCCC12 (stereo partly specified) | > 100 | > 100 | – | > 100 | > 100 | > 100 | > 100 | – | – | – | – | – | – | – | –
c1ccc2c(c1)OCCOCCOc1ccccc1OCCO2 | > 100 | > 100 | > 100 | 87.7 | > 100 | > 100 | – | > 100 | – | – | – | – | – | – | –
CCCC(=O)[O-].CCCC(=O)[O-].NCCN.NCCN.[Co+3].[O-][Cl+3]([O-])([O-])[O-] | – | – | – | > 100 | > 100 | > 100 | – | > 100 | > 100 | > 100 | > 100 | > 100 | – | – | –
C[n+]1c2ccccc2c(NC(CCCN=C(N)N)C(=O)O)c2ccccc21 (stereo unspecified) | > 100 | > 100 | > 100 | > 100 | > 100 | > 100 | > 100 | > 100 | – | – | – | – | – | – | –
COc1ccc(C2COc3c(ccc(O)c3C)C2)cc1OC (stereo unspecified) | 196 | 199 | 30.8 | > 200 | – | > 200 | 124 | > 200 | – | – | – | – | > 125 | > 113 | 154
Cc1ccc(C(=O)NCc2ccccc2)cc1N=NN(C)C | – | > 100 | – | > 100 | > 100 | > 100 | – | > 100 | – | – | – | – | – | – | –
